The test system of the assay is P388 leukemia ip, CD2F1 mice, survival T/C. The assay can be described thus: NCI In Vivo Anticancer Drug Screen. Data for tumor model P388 Leukemia (intraperitoneal) in CD2F1 (CDF1) mice. The following applies: endpoint: median survival time, higher = longer survival. The procedure, abridged: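 Mice carrying the transplanted tumor received test compound or vehicle. Survival was recorded in each group, and the value is the treated-group measurement divided by that of the vehicle-treated control group.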

[1] abbreviates: dose: 12.5 mg/kg/injection, schedule: Q01DX009 (ip), vehicle: other.
[2] abbreviates: dose: 25.0 mg/kg/injection, schedule: Q01DX009 (ip), vehicle: other.
The mark [3] stands for this setting: dose: 60.0 mg/kg/injection, schedule: Q01DX005 (ip), vehicle: saline with Tween-80.
Where [4] appears, read: dose: 120.0 mg/kg/injection, schedule: Q01DX005 (ip), vehicle: saline with Tween-80.
[5] abbreviates: dose: 240.0 mg/kg/injection, schedule: Q01DX005 (ip), vehicle: saline with Tween-80.
Where [6] appears, read: dose: 50.0 mg/kg/injection, schedule: Q01DX005 (ip), vehicle: Klucel (hydroxypropylcellulose) (HPC).
[7] abbreviates: dose: 100.0 mg/kg/injection, schedule: Q01DX005 (ip), vehicle: Klucel (hydroxypropylcellulose) (HPC).
Setting [8] is: dose: 200.0 mg/kg/injection, schedule: Q01DX005 (ip), vehicle: Klucel (hydroxypropylcellulose) (HPC).
Where [9] appears, read: dose: 50.0 mg/kg/injection, schedule: Q01DX005 (ip), vehicle: saline with Tween-80.
The mark [10] stands for this setting: dose: 100.0 mg/kg/injection, schedule: Q01DX005 (ip), vehicle: saline with Tween-80.
Where [11] appears, read: dose: 100.0 mg/kg/injection, schedule: Q01DX009 (ip), vehicle: saline.
Where [12] appears, read: dose: 200.0 mg/kg/injection, schedule: Q01DX009 (ip), vehicle: saline.

Several values for one entry are separate records, joined by “and”; a condition that tells them apart may be missing. Identical values can stand only once. Toxic doses and inconclusive results are not listed.

For the compound `COc1ccc(OC)c2c1CC(C(C)=O)CC2=O` (stereo unspecified), the T/C runs as follows: under setting [1], 99 % of control; under setting [2], 112 % of control; (dose: 50.0 mg/kg/injection, schedule: Q01DX009 (ip), vehicle: other) 105 % of control; (dose: 100.0 mg/kg/injection, schedule: Q01DX009 (ip), vehicle: other) 108 % of control; (dose: 200.0 mg/kg/injection, schedule: Q01DX009 (ip), vehicle: other) 107 % of control.
For the compound `COc1cc2c[n+](C)c3c4cc5c(cc4ccc3c2cc1OC)OCO5` (tested in a mixture with another compound), the T/C was 103 % of control (dose: 3.13 mg/kg/injection, schedule: Q01DX009 (ip), vehicle: other); 159 % of control (dose: 6.25 mg/kg/injection, schedule: Q01DX009 (ip), vehicle: Klucel (hydroxypropylcellulose) (HPC)); 151 % of control (dose: 6.25 mg/kg/injection, schedule: Q01DX009 (ip), vehicle: other); 116 % of control (dose: 7.4 mg/kg/injection, schedule: Q01DX009 (ip), vehicle: other); 156 % of control under setting [1]; 173 % of control under setting [2]. In addition, the T/C (dose: 50.0 mg/kg/injection, schedule: Q01DX009 (ip), vehicle: water) was 99 % of control.
Consider `C[C@@H]1CC[C@@]2(NC1)O[C@H]1C[C@H]3[C@@H]4CCC5=CC(=O)CC[C@]5(C)[C@H]4CC[C@]3(C)[C@H]1[C@@H]2C`, for which the T/C reads like this: (dose: 15.0 mg/kg/injection, schedule: Q01DX009 (ip), vehicle: saline with Tween-80) 102 % of control; (dose: 30.0 mg/kg/injection, schedule: Q01DX009 (ip), vehicle: saline with Tween-80) 100 % of control; (dose: 60.0 mg/kg/injection, schedule: Q01DX009 (ip), vehicle: saline with Tween-80) 99 % of control; (dose: 120.0 mg/kg/injection, schedule: Q01DX009 (ip), vehicle: saline with Tween-80) 93 % of control.
Regarding `O=[N+]([O-])c1ccc(-c2nnn(C3CC3)c2N2CCCCC2)cc1`, the T/C (dose: 100.0 mg/kg/injection, schedule: Q04DX002 (ip), vehicle: Klucel (hydroxypropylcellulose) (HPC)) is 100 % of control; the T/C (dose: 200.0 mg/kg/injection, schedule: Q04DX002 (ip), vehicle: Klucel (hydroxypropylcellulose) (HPC)) is 96 % of control; the T/C (dose: 400.0 mg/kg/injection, schedule: Q04DX002 (ip), vehicle: Klucel (hydroxypropylcellulose) (HPC)) is 101 % of control.
In the case of `COC(=O)c1cc2ccc1OCC#CC#CCOc1ccc(cc1C(=O)OC)OCC#CC#CCO2`, the T/C is 89 % of control under setting [3], 88 % of control under setting [4] and 88 % of control under setting [5].
For `CCCCCCCCCCOC(=O)c1ccccc1`, the T/C is, setting by setting: (dose: 50.0 mg/kg/injection, schedule: Q01DX009 (ip), vehicle: Klucel (hydroxypropylcellulose) (HPC)) 98 % of control; (dose: 100.0 mg/kg/injection, schedule: Q01DX009 (ip), vehicle: Klucel (hydroxypropylcellulose) (HPC)) 93 % of control; (dose: 200.0 mg/kg/injection, schedule: Q01DX009 (ip), vehicle: Klucel (hydroxypropylcellulose) (HPC)) 98 % of control.
For `Cc1nnc(NC(=O)c2cc(=O)c3cc(Cl)ccc3o2)s1`, the T/C under setting [6] was 100 % of control, the T/C under setting [7] was 106 % of control and the T/C under setting [8] is 100 % of control.
Take `O=C(O)c1cc(Nc2nc(Cl)nc(Cl)n2)ccc1-c1c2ccc(=O)cc-2oc2cc(O)ccc12`: the T/C under setting [3] is 115 % of control, the T/C under setting [4] is 119 % of control and the T/C under setting [5] was 117 % of control.
For `COC(=O)Cc1onc(-c2ccccc2)c1[N+](=O)[O-]` the same measures were 101 % of control, 101 % of control and 94 % of control.
Take `COc1cc(C2c3cc(O)c(OC)cc3CC(C(=O)O)C2CO)ccc1O` (stereo unspecified): the T/C was 100 % of control under setting [9]; 97 % of control under setting [10]; 98 % of control (dose: 200.0 mg/kg/injection, schedule: Q01DX005 (ip), vehicle: saline with Tween-80).
As to `O=C1SC/C(=N\N=C2/CSC(=O)N2Cc2ccccc2)N1Cc1ccccc1`, the T/C is, setting by setting: under setting [6], 87 % of control; under setting [7], 93 % of control; under setting [8], 88 % of control.
As to `Cc1c[n+]2ccc3ccccc3c2c2ccccc12`, the T/C is 119 % of control (dose: 2.2 mg/kg/injection, schedule: Q01DX009 (ip), vehicle: Klucel (hydroxypropylcellulose) (HPC)); 116 % of control (dose: 2.5 mg/kg/injection, schedule: Q01DX009 (ip), vehicle: Klucel (hydroxypropylcellulose) (HPC)); 120 % of control (dose: 3.3 mg/kg/injection, schedule: Q01DX009 (ip), vehicle: Klucel (hydroxypropylcellulose) (HPC)); 122 % of control (dose: 5.0 mg/kg/injection, schedule: Q01DX009 (ip), vehicle: Klucel (hydroxypropylcellulose) (HPC)).
With `Cn1cnc([N+](=O)[O-])c1Sc1ncn[nH]1`, the T/C by setting is: (dose: 12.5 mg/kg/injection, schedule: Q01DX009 (ip), vehicle: saline) 106 % of control; (dose: 25.0 mg/kg/injection, schedule: Q01DX009 (ip), vehicle: saline) 122 % of control; under setting [11], 122 % of control; under setting [12], 113 % of control.
As for `CNC(=O)O/N=C/C(C)(C)SC`, the T/C was 101 % of control (dose: 0.11 mg/kg/injection, schedule: Q01DX005 (ip), vehicle: Klucel (hydroxypropylcellulose) (HPC)); 101 % of control (dose: 0.23 mg/kg/injection, schedule: Q01DX005 (ip), vehicle: Klucel (hydroxypropylcellulose) (HPC)); 101 % of control (dose: 0.46 mg/kg/injection, schedule: Q01DX005 (ip), vehicle: Klucel (hydroxypropylcellulose) (HPC)).
On to `CCC[CH2][Sn]([CH2]CCC)[CH2]CCC.CCC[CH2][Sn]([CH2]CCC)[CH2]CCC`, for which the T/C (dose: 1.56 mg/kg/injection, schedule: Q04DX002 (ip), vehicle: saline with Tween-80) is 103 % of control; the T/C (dose: 3.12 mg/kg/injection, schedule: Q04DX002 (ip), vehicle: saline with Tween-80) was 117 % of control; the T/C (dose: 6.25 mg/kg/injection, schedule: Q04DX002 (ip), vehicle: saline with Tween-80) was 103 % of control and 109 % of control; the T/C (dose: 100.0 mg/kg/injection, schedule: Q04DX003 (ip), vehicle: Klucel (hydroxypropylcellulose) (HPC)) is 118 % of control.
With `COC(=O)c1ccc(C(=S)SC)cc1`, the T/C reads like this: (dose: 100.0 mg/kg/injection, schedule: Q04DX002 (ip), vehicle: saline) 100 % of control; (dose: 200.0 mg/kg/injection, schedule: Q04DX002 (ip), vehicle: saline) 100 % of control; (dose: 400.0 mg/kg/injection, schedule: Q04DX002 (ip), vehicle: saline) 99 % of control.
As for `S=c1sc2ccccc2n1CN1CCOCC1`, the T/C is 107 % of control (dose: 25.0 mg/kg/injection, schedule: Q01DX005 (ip), vehicle: saline with Tween-80); 104 % of control and 114 % of control under setting [9]; 121 % of control and 124 % of control under setting [10].
Take `CN1C(=O)C2CCC1n1c(=O)n(-c3ccccc3)c(=O)n12` (stereo unspecified): the T/C is 97 % of control (dose: 100.0 mg/kg/injection, schedule: Q01DX001 (ip), vehicle: Klucel (hydroxypropylcellulose) (HPC)); 99 % of control (dose: 200.0 mg/kg/injection, schedule: Q01DX001 (ip), vehicle: Klucel (hydroxypropylcellulose) (HPC)); 94 % of control (dose: 400.0 mg/kg/injection, schedule: Q01DX001 (ip), vehicle: Klucel (hydroxypropylcellulose) (HPC)).
For the compound `CN=NNCc1ccccc1`, the T/C reads like this: (dose: 1.56 mg/kg/injection, schedule: Q01DX005 (ip), vehicle: saline) 100 % of control and 102 % of control; (dose: 3.12 mg/kg/injection, schedule: Q01DX005 (ip), vehicle: saline) 98 % of control and 103 % of control; (dose: 6.25 mg/kg/injection, schedule: Q01DX005 (ip), vehicle: saline) 102 % of control and 105 % of control; (dose: 12.5 mg/kg/injection, schedule: Q01DX005 (ip), vehicle: saline) 93 % of control.
As to `CC(C)N1CCN(c2ccncc2S(=O)(=O)N2CCCC2)CC1`, the T/C was 87 % of control (dose: 50.0 mg/kg/injection, schedule: Q01DX009 (ip), vehicle: saline); 99 % of control under setting [11]; 97 % of control under setting [12].

The values are drawn from PubChem BioAssay AID330 (DTP/NCI, 2004).
